Experimental data from patent US20160377635A1, “Measurement of Oxytocin and Vasopressin” (Martin-Protean LLC, priority 2013, published 2016).

What was measured:
[1] = disulfide exchange with plasma thiols in the presence of air; format: physicochemical
Protocol: (§1) Oxytocin and vasopressin undergo disulfide exchange with abundant thiol containing compounds under aerobic conditions like those found in blood plasma. […] If albumin (1 mM) is added to that mixture all detectable oxytocin and vasopressin sequester with albumin upon acetone precipitation. Oxytocin immunoreactivity in plasma is associated with high molecular weight species (Szeto et al). When beta-mercaptoethanol (1 M) and histamine (30 mM) are added to plasma, oxytocin and vasopressin in the 1-100 nM range were recovered rather than the 1-100 pM range recovered without thiols or reported routinely with existing commercially available immunoreactivity tests. The mid nanomolar range is much more consistent with the concentrations required in biological assays for these compounds, such as inducing the lactation reflect with rabbit mammary tissue. Nanomolar concentrations for oxytocin and vasopressin are also far more consistent with the doses required for either peptide in intervention regimes.
Incubating oxytocin and vasopressin them with glutathione at its plasma concentration in the presence of air (as in blood) induces oxytocin and vasopressin to disulfide exchange with glutathione and undergo additional oxidation resulting in the accumulation of diglutathione adducts (FIGS. 4A-C). This additional oxidation-containing product accumulates even in the presence of a vast excess of reducing equivalents in the form of remaining excess reduced glutathione. The introduction of air lead to a disulfide exchange result distinct from that observed in the published literature. The disulfide exchange is inhibited by EDTA which is added to most blood as a preservative. In the body the hormones undergo exchange, but in collected blood the EDTA will inhibit diglutathione formation unless the redox state of the collected blood is perturbed, as FIG. 5.

[2] = system: excised and bathed section of mammary gland tissue; details: cited from earlier work
albumin = albumin (Homo sapiens, UniProt P02768); experiment: incubation with free thiol containing albumin, acetone precipitation; format: in vitro ADME
Sequence of albumin (P02768 25-609, species assumed): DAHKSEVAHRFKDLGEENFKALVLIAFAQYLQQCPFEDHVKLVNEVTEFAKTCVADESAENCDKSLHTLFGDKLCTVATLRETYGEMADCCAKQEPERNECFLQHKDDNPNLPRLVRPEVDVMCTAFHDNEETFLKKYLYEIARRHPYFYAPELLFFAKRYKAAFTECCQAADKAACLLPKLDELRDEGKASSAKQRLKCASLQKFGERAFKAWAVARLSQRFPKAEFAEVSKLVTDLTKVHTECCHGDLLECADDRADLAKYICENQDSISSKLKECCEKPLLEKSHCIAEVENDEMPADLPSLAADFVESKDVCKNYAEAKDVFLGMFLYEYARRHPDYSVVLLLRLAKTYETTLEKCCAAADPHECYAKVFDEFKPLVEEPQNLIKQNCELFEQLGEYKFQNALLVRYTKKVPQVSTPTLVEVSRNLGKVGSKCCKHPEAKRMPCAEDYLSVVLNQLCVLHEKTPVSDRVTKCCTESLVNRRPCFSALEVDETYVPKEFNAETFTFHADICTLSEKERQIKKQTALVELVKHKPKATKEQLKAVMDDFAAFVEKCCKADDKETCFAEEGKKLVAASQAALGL
Protocol: as §1
Acetone extraction of the incubation clears oxytocin and vasopressin from the solution into the pellet with the albumin. In one embodiment, exceptionally short half-life of oxytocin is measured with immunoreactivity on acetone extracted fractions. Observation of disulfide exchange mediated accumulation of oxytocin on high molecular weight proteins in the plasma.

[3] = reduced glutathione (1 mM) and oxygen, peptide ~10 nM
[4] = reduced glutathione, reduced cysteine (0.5 mM) and oxygen

adsorption to albumin (albumin; pH 7.4)	Compound	adduct formation by disulfide exchange [1, 3]	adduct formation by disulfide exchange [1, 4]	linear response range for contraction response [2]	adsorption to albumin (albumin; pH 7.4, room temperature (or 37° C.), with or without glutathione and cysteine)
quantitative adsorption to albumin	CC[C@H](C)[C@@H]1NC(=O)[C@H](Cc2ccc(O)cc2)NC(=O)[C@@H](N)CSSC[C@@H](C(=O)N2CCC[C@H]2C(=O)N[C@@H](CC(C)C)C(=O)NCC(N)=O)NC(=O)[C@H](CC(N)=O)NC(=O)[C@H](CCC(N)=O)NC1=O [oxytocin]	form diglutathione adducts	form dicysteine adducts	1 to 20 ng/mL	
	NC(=O)CC[C@@H]1NC(=O)[C@H](Cc2ccccc2)NC(=O)[C@H](Cc2ccc(O)cc2)NC(=O)[C@@H](N)CSSC[C@@H](C(=O)N2CCC[C@H]2C(=O)N[C@@H](CCCN=C(N)N)C(=O)NCC(N)=O)NC(=O)[C@H](CC(N)=O)NC1=O [vasopressin]	form diglutathione adducts	form dicysteine adducts		quantitative adsorption to albumin
